Data reported in patent US5834259A, “Process and composition for preparing D-aspartic acid” (Monsanto Company, priority 1996, dated 1998).

Legend:
Format in all cases: biochemical, E. coli K12
[1] = target: T1, L-aspartate-α-decarboxylase (Escherichia coli, UniProt P0A790); test: 1.0M D/L-aspartate, 100 g/l cells, reaction A (Example 6); settings: 1.0M, 100 g/l cells, 37° C.
T1 construct: expressed in transfected cells; host or cells: E. coli W3110 transformed with pIF309 = strain NS3291 (ATCC 98675), whole cells
Protocol: 1.0M D/L-aspartate was tested as a substrate for two enzyme cell loads, 100 g/l cells, referred to here as reaction "A", and 50 g/l cells, referred to here as reaction "B".
133.1 g of D/L-aspartic acid was dissolved in approximately 600 ml deionized H2 O and pH was adjusted to 7.0 with NaOH, using 100 ml of 10N NaOH and a small amount of 1.0N NaOH. The substrate for reaction A was brought to 963 ml with deionized H2 O. The reaction was started with 137 ml cells that were stored in the cold room. For reaction B, the substrate was brought to a volume of 981.5 ml. The reaction was started with […] cells.
Both reactions were carried out in 2 L fermentors at pH 7.0 without constant adjustments and at 37° C. Samples were removed over time, centrifuged and the supernatant fluid was diluted and submitted for D- and L-aspartic acid HPLC analysis.

[2] = target: T1, L-aspartate-α-decarboxylase; test: Activity towards D/L-glutamate and D/L-alanine, D/L-aspartate as control (Example 8); settings: racemate substrate, pH 7.0
Protocol: D/L-aspartate was run as a control.
Substrates were prepared by dissolving solid amino acid racemate in approximately 75 ml deionized H2 O and adjusting the pH to 7.0 with 10N NaOH. The volume was then brought to 100 ml with deionized H2 O. The cells used were stored frozen for about 1 month and then thawed and stored in a refrigerator for about 1 month prior to running the experiments.
The reaction was run the same as described in the prior Examples. Samples of supernatant fluid, approximately 0.20 ml, were removed over time, centrifuged and stored frozen before analysis by HPLC as described in the prior Examples.

[3] = target: T1, L-aspartate-α-decarboxylase; test: Re-treatment of Example 3 supernatant fluid with fresh cells (Example 4); settings: 37° C.
Description: In all of the Examples herein, D- and L-aspartic acid isomers were quantified by HPLC using the following precolumn derivatization method. Aspartic acid was converted into diastereomers using ortho-phthalaldehyde and N-acetyl-L-cysteine. Separation of the diastereomers was achieved on a Supelcosil™ LC-18DB, 3μ, 150×4.6 mm column using a mobile phase of A: 20% methanol/80% triethylamine phosphate and B: methanol, and a step gradient as follows: […]
In this Example the supernatant fluid from Example 3 was re-treated with fresh cells. The reaction from Example 3, stopped at 68 hours, was centrifuged for 45 minutes in a GS-3 rotor at 7000 rpm. The supernatant fluid, 990 ml, was separated from the cells. 963 ml of this supernatant fluid was mixed with 137 ml fresh cells and placed in a 2 L fermentor. Bioconversion took place with mixing at 300 rpm, without automatic pH control and at a temperature of 37° C. Samples, approximately 1 ml, were removed over time and analyzed as in Example 3.

[4] = target: T1, L-aspartate-α-decarboxylase; test: Temperature study, 45° C. (Example 9); settings: for concentration in supernatant fluid / percent remaining: 1.0M, 100 g/l cells
Protocol: 133.1 g (1 mol) of D/L-aspartic acid was dissolved in deionized H2 O and the pH was adjusted to 7.0 with 10N NaOH, approximately 100 ml. Cells, freshly thawed from -80° C., were added to achieve a final concentration of 100 g/l. Three 2 L fermentors were each charged with 963 ml of substrate solution and 137 ml of cells and then heated to 37° C. and 45° C. while mixing at 300 rpm or heated to 50° C. while mixing at 450 rpm. Samples, approximately 1 ml, were removed over time and pH adjusted to 7.0 with either NaOH or HCl. After centrifugation to remove cells, the supernatant fluid was analyzed for both D- and L-aspartic acid.

## N[C@H](CC(=O)O)C(=O)O [D-Asp, D-aspartic acid]
[1]; 0.0000 hr
  concentration in supernatant fluid: 53.600 mg/mL
[1]; 2.0000 hr
  concentration in supernatant fluid: 50.680 mg/mL
[1]; 4.5000 hr
  concentration in supernatant fluid: 44.920 mg/mL
[1]; 7.0000 hr
  concentration in supernatant fluid: 42.260 mg/mL
[1]; 22.500 hr
  concentration in supernatant fluid: 35.680 mg/mL
[1]; 24.000 hr
  concentration in supernatant fluid: 34.420 mg/mL
[1]; 31.000 hr
  concentration in supernatant fluid: 32.660 mg/mL
[1]; 37.500 hr
  concentration in supernatant fluid: 27.950 mg/mL
[1]; 47.000 hr
  concentration in supernatant fluid: 20.710 mg/mL
[1]; 50.500 hr
  concentration in supernatant fluid: 18.490 mg/mL
[1]; 53.800 hr
  concentration in supernatant fluid: 13.730 mg/mL
[1]; 58.000 hr
  concentration in supernatant fluid: 13.410 mg/mL
[1]; 70.000 hr
  concentration in supernatant fluid: 6.1300 mg/mL
[1]; 72.000 hr
  concentration in supernatant fluid: 5.3900 mg/mL
[2]; 0 hr
  concentration in supernatant fluid: 29.890 mg/mL
[2]; 3.5 hr
  concentration in supernatant fluid: 29.850 mg/mL
  percent remaining: 99.866%
[2]; 8.5 hr
  concentration in supernatant fluid: 29.900 mg/mL
  percent remaining: 100.03%
[2]; 24 hr
  concentration in supernatant fluid: 29.740 mg/mL
  percent remaining: 99.498%
[2]; 55 hr
  concentration in supernatant fluid: 30.120 mg/mL
  percent remaining: 100.77%
[3]; 0.0000 hr
  concentration in supernatant fluid: 21.450 mg/mL
[3]; 2.7500 hr
  concentration in supernatant fluid: 21.350 mg/mL
  percent remaining: 99.534%
[3]; 13.500 hr
  concentration in supernatant fluid: 21.190 mg/mL
  percent remaining: 98.788%
[3]; 15.000 hr
  concentration in supernatant fluid: 20.770 mg/mL
  percent remaining: 96.830%
[3]; 19.500 hr
  concentration in supernatant fluid: 21.480 mg/mL
  percent remaining: 100.14%
[3]; 23.500 hr
  concentration in supernatant fluid: 20.880 mg/mL
  percent remaining: 97.343%
[3]; 39.000 hr
  concentration in supernatant fluid: 19.080 mg/mL
  percent remaining: 88.951%
[3]; 47.000 hr
  concentration in supernatant fluid: 17.280 mg/mL
  percent remaining: 80.559%
[3]; 51.750 hr
  concentration in supernatant fluid: 17.010 mg/mL
  percent remaining: 79.301%
[3]; 68.500 hr
  concentration in supernatant fluid: 14.900 mg/mL
  percent remaining: 69.464%
[4]
  stability of the isomer: stable
[4]; 0.000 hr
  concentration in supernatant fluid: 55.280 mg/mL
[4]; 2.5000 hr
  concentration in supernatant fluid: 54.820 mg/mL
  percent remaining: 99.168%
[4]; 4.0000 hr
  concentration in supernatant fluid: 53.960 mg/mL
  percent remaining: 97.612%
[4]; 6.0000 hr
  concentration in supernatant fluid: 53.460 mg/mL
  percent remaining: 96.708%
[4]; 8.0000 hr
  concentration in supernatant fluid: 54.040 mg/mL
  percent remaining: 97.757%
[4]; 10.000 hr
  concentration in supernatant fluid: 54.870 mg/mL
  percent remaining: 99.258%
[4]; 12.000 hr
  concentration in supernatant fluid: 54.060 mg/mL
  percent remaining: 97.793%
[4]; 20.000 hr
  concentration in supernatant fluid: 52.360 mg/mL
  percent remaining: 94.718%
[4]; 24.000 hr
  concentration in supernatant fluid: 51.310 mg/mL
  percent remaining: 92.818%
[4]; 29.000 hr
  concentration in supernatant fluid: 53.830 mg/mL
  percent remaining: 97.377%
[4]; 34.000 hr
  concentration in supernatant fluid: 52.880 mg/mL
  percent remaining: 95.658%
[4]; 44.000 hr
  concentration in supernatant fluid: 53.640 mg/mL
  percent remaining: 97.033%
[4]; 48.000 hr
  concentration in supernatant fluid: 52.730 mg/mL
  percent remaining: 95.387%
[4]; 68.000 hr
  concentration in supernatant fluid: 53.560 mg/mL
  percent remaining: 96.889%
[4]; 92.000 hr
  concentration in supernatant fluid: 53.560 mg/mL
  percent remaining: 96.889%
